Measurements from publication PMC3827244, “An Ultrasensitive High Throughput Screen for DNA Methyltransferase 1-Targeted Molecular Probes” (PLoS ONE, 2013).

Legend:
CD-DNMT3A/DNMT3L complex = biological target: T1, CD-DNMT3A/DNMT3L complex (Homo sapiens, UniProt Q9Y6K1); assay: Compound selectivity, endonuclease-coupled DNA methylation assay; format: biochemical; conditions: 20 µM inhibitor, 20 nM methyltransferase, 0.25 mM SAM
T1 construct: CD-DNMT3A; amino acids 611–912; His tag (N); made in house; host or cells: Rosetta 2(DE3)pLysS (E. coli) for CD-DNMT3A
Protocol: (§1) Triplicate assays (100 µl) containing 0.25 mM SAM, 0.2 µM oligonucleotide 8006, 0.8 U GlaI, 20 nM methyltransferase, 20 µM inhibitor and 1% DMSO were conducted in 96 well plates. Following enzyme addition, assay plates were incubated at 37°C for 75 min and fluorescence was measured in a BioTek Neo plate reader. A control containing only GlaI was subtracted from each assay. […] Percent activity was determined by comparing product formation to a DMSO containing control assay.

[1] = biological target: T2, RFTS-containing DNMT1 (amino acids 351–1616) (Homo sapiens, UniProt P26358); assay: as above; format: biochemical; conditions: 20 µM inhibitor, 20 nM methyltransferase, 0.25 mM SAM
T2 construct: RFTS-containing DNMT1, amino acids 351–1616; made in house
Protocol: as §1

M.SssI DNMT = biological target: T3, M.SssI DNMT (Spiroplasma monobiae, UniProt P15840); assay: as above; format: biochemical, bacterial; conditions: 1.25 h; 20 µM inhibitor, 20 nM methyltransferase, 0.25 mM SAM; read-out: Percent activity, M.SssI DNMT
T3 construct: purchased New England Biolabs
Protocol: as §1, with “After identifying direct inhibitors of DNMT1 lacking the RFTS domain, inhibitor selectivity was assessed by examining inhibition of RFTS-containing DNMT1 (amino acids 351–1616), CD-DNMT3A/DNMT3L complex, and the bacterial cytosine methyltransferase from M. SssI (New England Biolabs) using the endonuclease-coupled DNA methylation assay. Triplicate” for “Triplicate”

calf thymus DNA = assay: DNA intercalation assay (ethidium bromide displacement); format: binding; conditions: 10 µM compound
Protocol: DNA intercalation was assessed by examining the ability of the compounds to displace ethidium bromide from calf thymus DNA (ctDNA; Sigma). Duplicate assays (100 µl) were conducted in black 96 well plates and contained 15 µg/ml ctDNA, 1.5 µM ethidium bromide and 10 µM compound in methylation assay buffer. DMSO was used as a negative control and daunorubicin (Sigma) was used as a positive control. Fluorescence was measured using excitation and emission wavelengths of 320 nm and 600 nm, respectively.

T1 sequence (Q9Y6K1 611-912): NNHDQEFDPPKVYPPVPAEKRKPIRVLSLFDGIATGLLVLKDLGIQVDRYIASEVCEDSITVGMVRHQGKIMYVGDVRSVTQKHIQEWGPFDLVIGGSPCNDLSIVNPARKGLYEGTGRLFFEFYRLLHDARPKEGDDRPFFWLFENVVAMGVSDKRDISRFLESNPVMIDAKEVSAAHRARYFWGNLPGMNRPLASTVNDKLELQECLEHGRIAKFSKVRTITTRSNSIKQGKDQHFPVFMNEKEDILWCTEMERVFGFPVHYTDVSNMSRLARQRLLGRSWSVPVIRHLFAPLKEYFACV
T1 sequence (Q9UJW3 whole entry partner, the tested form may be a part): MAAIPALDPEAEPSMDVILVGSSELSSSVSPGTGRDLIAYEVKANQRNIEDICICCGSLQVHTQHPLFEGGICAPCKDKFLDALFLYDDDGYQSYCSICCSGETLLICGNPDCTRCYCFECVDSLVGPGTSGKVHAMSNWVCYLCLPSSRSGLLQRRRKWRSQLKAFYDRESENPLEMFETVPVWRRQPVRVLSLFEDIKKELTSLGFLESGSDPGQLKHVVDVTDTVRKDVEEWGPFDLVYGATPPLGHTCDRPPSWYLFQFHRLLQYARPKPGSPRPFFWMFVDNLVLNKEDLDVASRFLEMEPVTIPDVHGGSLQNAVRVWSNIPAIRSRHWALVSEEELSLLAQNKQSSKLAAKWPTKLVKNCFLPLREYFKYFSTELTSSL
T3 sequence (P15840 whole entry): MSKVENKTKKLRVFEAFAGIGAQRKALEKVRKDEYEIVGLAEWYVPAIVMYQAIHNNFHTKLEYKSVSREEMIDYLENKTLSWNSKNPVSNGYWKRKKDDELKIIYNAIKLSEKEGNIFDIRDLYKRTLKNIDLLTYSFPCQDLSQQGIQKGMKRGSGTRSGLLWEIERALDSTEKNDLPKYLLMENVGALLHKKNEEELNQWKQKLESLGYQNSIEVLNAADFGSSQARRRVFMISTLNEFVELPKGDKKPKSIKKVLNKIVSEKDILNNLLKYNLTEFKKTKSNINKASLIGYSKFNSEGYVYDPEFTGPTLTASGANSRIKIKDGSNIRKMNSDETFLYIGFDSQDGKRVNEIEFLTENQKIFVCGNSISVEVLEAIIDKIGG
T2 sequence (P26358 351-1616): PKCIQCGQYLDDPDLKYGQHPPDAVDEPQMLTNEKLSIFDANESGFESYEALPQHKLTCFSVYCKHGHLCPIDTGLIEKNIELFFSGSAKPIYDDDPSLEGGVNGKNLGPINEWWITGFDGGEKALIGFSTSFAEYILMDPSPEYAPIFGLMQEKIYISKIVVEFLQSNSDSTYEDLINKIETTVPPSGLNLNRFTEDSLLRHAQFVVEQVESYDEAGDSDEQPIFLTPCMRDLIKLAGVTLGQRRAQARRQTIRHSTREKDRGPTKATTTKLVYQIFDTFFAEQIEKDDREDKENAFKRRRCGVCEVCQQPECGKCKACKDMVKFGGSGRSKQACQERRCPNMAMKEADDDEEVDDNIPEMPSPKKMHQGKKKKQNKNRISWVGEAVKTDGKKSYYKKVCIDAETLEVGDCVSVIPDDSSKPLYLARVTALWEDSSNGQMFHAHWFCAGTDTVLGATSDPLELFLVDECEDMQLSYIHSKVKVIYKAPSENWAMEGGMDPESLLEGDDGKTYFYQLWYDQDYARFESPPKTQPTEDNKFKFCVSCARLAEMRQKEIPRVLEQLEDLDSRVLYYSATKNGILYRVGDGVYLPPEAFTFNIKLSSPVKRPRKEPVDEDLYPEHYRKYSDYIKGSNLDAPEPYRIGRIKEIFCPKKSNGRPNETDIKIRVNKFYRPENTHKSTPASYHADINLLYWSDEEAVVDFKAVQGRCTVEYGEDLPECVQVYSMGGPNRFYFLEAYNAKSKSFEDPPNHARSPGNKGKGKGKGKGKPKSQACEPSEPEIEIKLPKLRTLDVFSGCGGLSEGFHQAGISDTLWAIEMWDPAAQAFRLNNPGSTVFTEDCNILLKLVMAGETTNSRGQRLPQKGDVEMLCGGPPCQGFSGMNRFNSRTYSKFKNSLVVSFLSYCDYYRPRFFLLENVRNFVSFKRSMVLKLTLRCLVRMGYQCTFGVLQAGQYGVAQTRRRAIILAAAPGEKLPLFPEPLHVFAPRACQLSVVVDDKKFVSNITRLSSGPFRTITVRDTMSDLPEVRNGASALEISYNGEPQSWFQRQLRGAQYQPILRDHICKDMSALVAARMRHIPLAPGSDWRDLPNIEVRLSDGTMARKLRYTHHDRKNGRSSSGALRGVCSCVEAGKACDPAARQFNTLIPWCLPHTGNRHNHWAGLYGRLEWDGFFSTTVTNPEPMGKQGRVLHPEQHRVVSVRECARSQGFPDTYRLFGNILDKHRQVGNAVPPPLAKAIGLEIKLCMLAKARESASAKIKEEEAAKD

| SMILES | Percent activity, DNMT3A/DNMT3L Complex (CD-DNMT3A/DNMT3L complex) [%] | Percent activity, RFTS-containing Dnmt1 [1] [%] | remaining activity at 20 µM (M.SssI DNMT) [%] | DNA intercalation (in words) (calf thymus DNA) | RFU (ethidium bromide fluorescence) (calf thymus DNA; 15 µg/ml ctDNA, 1.5 µM ethidium bromide, DMSO 2370 ± 190) [RFU] |
| --- | --- | --- | --- | --- | --- |
| Nc1ncn([C@@H]2O[C@H](CO)[C@@H](O)[C@H]2O)c(=O)n1 [5-aza-cytidine, reference compound] | 97±10 | 100±11 | 100 ± 5 |  |  |
| COc1cccc2c1C(=O)c1c(O)c3c(c(O)c1C2=O)C[C@@](O)(C(C)=O)C[C@@H]3O[C@H]1C[C@H](N)[C@H](O)[C@H](C)O1 [Daunorubicin, daunorubicin, reference compound] |  |  |  | significantly reduced fluorescence | 605 ± 33 |
